Test results reported in patent US5162336A, “Tetrahydro-pyrido-indoles as cholecystokinin and gastrin antagonists” (Rhone-Poulenc Rorer Pharmaceuticals Inc., priority 1990, dated 1992).

Biological target: T1, CCK-A receptor (Rattus norvegicus, UniProt P30551)
T1 construct: from tissue; host or cells: pancreas membranes of Sprague-Dawley rat
T1 sequence (P30551 1-444): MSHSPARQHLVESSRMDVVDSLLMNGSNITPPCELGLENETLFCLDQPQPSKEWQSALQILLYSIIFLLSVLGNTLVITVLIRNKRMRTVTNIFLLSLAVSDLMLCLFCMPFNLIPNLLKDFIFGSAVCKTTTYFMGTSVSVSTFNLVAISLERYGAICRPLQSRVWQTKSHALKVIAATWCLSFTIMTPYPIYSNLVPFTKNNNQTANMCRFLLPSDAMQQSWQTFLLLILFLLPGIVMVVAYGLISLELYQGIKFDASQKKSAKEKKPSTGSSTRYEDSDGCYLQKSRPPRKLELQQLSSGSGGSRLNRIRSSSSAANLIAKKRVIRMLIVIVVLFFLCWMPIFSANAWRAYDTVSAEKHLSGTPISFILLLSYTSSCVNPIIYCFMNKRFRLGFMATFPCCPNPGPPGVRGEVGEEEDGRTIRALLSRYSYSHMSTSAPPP
Test: CCK-A receptor binding assay (displacement of 3H-L-364,718 from rat pancreas membranes)
Set-up: species or system Sprague-Dawley rat
Settings: 3H-L-364,718 0.2 nM, 37° C., 30 min, read-out: In vitro Binding Data IC50 CCK
How it was run: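 Rat pancreas membranes incubated 30 min at 37 °C with 0.2 nM 3H-L-364,718 in 50 mM Tris pH 7.7, 5 mM MgCl2, 5 mM DTT, 0.14 mg/ml bacitracin, 2 mg/ml BSA. Nonspecific binding defined by 300 nM unlabeled L-364,718; rapid filtration and scintillation counting, triplicates.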

- IC50: 100 µM
Compound: CC(C)C[C@H](NC(=O)[C@H]1Cc2c([nH]c3ccccc23)CN1C(=O)Nc1cccc2ccccc12)C(=O)N[C@@H](CC(=O)O)C(N)=O [Example 67, N-[(3R)-2-(1-naphthylcarbamoyl)-1,2,3,4-tetrahydro-9H-pyrido[3,4-b]indole-3-carboxyl]-L-leucyl-L-aspartic acid amide]
